The text below walks through data of ChEMBL document CHEMBL1201862, “PubChem BioAssay data set” (2004).

Structures are written as SMILES.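 A five-concentration, 48-hour dose response in 96-well plates underlies each endpoint, interpolated linearly between surrounding concentrations. GI50 = concentration required for 50% inhibition of growth.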 The source made the active and inactive calls. No stated cut-off is given here; in the data, active = GI50 up to about 1.1 µM and inactive = higher.

Among the test systems are A549; CAKI-1; DLD-1; HCC 2998; KM12; Malme-3M; NCI-H226; NCI-H23; OVCAR-3; SF-539; SK-MEL-2; SK-MEL-5; SR; TK-10; U-251; UACC-62; SK-OV-3; MCF7; MDA-N; T47D.
Holding throughout (assay): DTP human tumour cell line panel, 48 h

Take `CS(=O)(=O)NNS(=O)(=O)c1ccc(Cl)cc1`: the GI50 – broadly, the concentration at which growth is held to half of that of the control – in the assay on A549 is > 100 µM (inactive); with CAKI-1, 36.7 µM (inactive); in the assay on DLD-1, > 100 µM (inactive); in the assay on HCC 2998 it was > 100 µM (inactive); in the assay on KM12, > 100 µM (inactive); in the assay with Malme-3M it was > 100 µM (inactive). Moreover, the GI50 in the assay on NCI-H226 is 11 µM (inactive); with NCI-H23 it was > 100 µM (inactive); in the assay on OVCAR-3, > 100 µM (inactive); with SF-539 it was > 100 µM (inactive); in the assay on SK-MEL-2, > 100 µM (inactive); with SK-MEL-5 it was > 100 µM (inactive). Besides, the GI50 in the assay with SR was 62.8 µM (inactive); with TK-10 it was > 100 µM (inactive); in the assay on U-251, > 100 µM (inactive); with UACC-62, > 100 µM (inactive).
As for `CCCCC#COP(=O)(OCC)OCC`, the GI50 in the assay with A549, with CAKI-1, in the assay on DLD-1, with HCC 2998, in the assay on KM12 and with Malme-3M was > 100 µM (inactive) each time. In addition, the GI50 with NCI-H226, with NCI-H23, with OVCAR-3, with SF-539, in the assay with SK-MEL-2 and in the assay with SK-MEL-5 was > 100 µM (inactive) throughout. Further, the GI50 with SK-OV-3, in the assay with SR, in the assay with TK-10, in the assay with U-251 and with UACC-62 was > 100 µM (inactive) each time.
As to `CC(C)NC(=O)CCN(C(=O)O)S(=O)(=O)c1ccc(NC(=O)c2ccccc2)cc1`, the GI50 is > 50.1 µM (inactive) in the assay on A549; > 100 µM (inactive) in the assay on CAKI-1; > 41.6 µM (inactive) in the assay with DLD-1; > 100 µM (inactive) in the assay on HCC 2998; > 65.6 µM (inactive) with KM12; > 100 µM (inactive) with Malme-3M. Also, the GI50 in the assay on NCI-H226 was > 100 µM (inactive); with NCI-H23 it was > 100 µM (inactive); in the assay with OVCAR-3 it was > 100 µM (inactive); in the assay with SF-539, 24.6 µM (inactive); in the assay on SK-MEL-2, > 100 µM (inactive); in the assay on SK-MEL-5 it was > 100 µM (inactive). For the same compound, the GI50 was > 100 µM (inactive) in the assay with SK-OV-3; > 52.8 µM (inactive) with SR; > 100 µM (inactive) in the assay on TK-10; 15.6 µM (inactive) in the assay on U-251; > 45.5 µM (inactive) in the assay with UACC-62.
For `COC(=O)C1(F)C(=O)NC(=O)NC1OC` (stereo not drawn), the GI50 in the assay with A549 was 5.92 µM (inactive); in the assay with CAKI-1, 83.9 µM (inactive); in the assay with DLD-1 it was 5.92 µM (inactive); with KM12 it was 21.6 µM (inactive); in the assay on Malme-3M, 34.9 µM (inactive); in the assay on NCI-H226 it was > 100 µM (inactive). In addition, the GI50 in the assay on NCI-H23 was 30.3 µM (inactive); in the assay on OVCAR-3 it was 94.2 µM (inactive); in the assay with SF-539 it was 2.58 µM (inactive); in the assay with SK-MEL-2 it was > 100 µM (inactive); in the assay with SK-MEL-5, 9.84 µM (inactive); in the assay with SK-OV-3, > 100 µM (inactive). Besides, the GI50 in the assay on SR was > 100 µM (inactive); in the assay on TK-10, > 100 µM (inactive); in the assay on U-251, 24.5 µM (inactive); with UACC-62, 18.6 µM (inactive).
Consider `CCN(CC)CCCC(C)Nc1c2ccc(Cl)cc2nc2ccc(OC)cc12` (stereo not drawn), for which the GI50 was 1.65 µM (inactive) with A549; 1.59 µM (inactive) with CAKI-1; 1.64 µM (inactive) in the assay with DLD-1; 1.36 µM (inactive) with HCC 2998; 1.63 µM (inactive) in the assay with KM12; 2.08 µM (inactive) in the assay on MCF7. Moreover, the GI50 in the assay with MDA-N was 1.78 µM (inactive); with Malme-3M, 1.9 µM (inactive); in the assay on NCI-H226, 4 µM (inactive); in the assay on NCI-H23, 1.61 µM (inactive); with OVCAR-3 it was 2.85 µM (inactive); in the assay with SF-539 it was 1.67 µM (inactive). Also, the GI50 was 1.67 µM (inactive) with SK-MEL-2; 1.71 µM (inactive) with SK-MEL-5; 4.84 µM (inactive) in the assay with SK-OV-3; 0.895 µM (active) with SR; 2.31 µM (inactive) with T47D; 3.13 µM (inactive) in the assay with TK-10. Also, the figures for the GI50 with U-251 and in the assay with UACC-62 were 1.29 µM (inactive) and 1.54 µM (inactive), respectively.
On to `CCOC(=O)c1c(-c2ccccc2)oc(-c2ccccc2)c1C(=O)OCC`, for which the GI50 in the assay with A549 was > 100 µM (inactive); in the assay on DLD-1, > 100 µM (inactive); in the assay on HCC 2998, 67.1 µM (inactive); in the assay on KM12 it was > 100 µM (inactive); in the assay on Malme-3M, > 100 µM (inactive); with NCI-H226, > 100 µM (inactive). The GI50 was 89.3 µM (inactive) in the assay with NCI-H23; > 100 µM (inactive) with OVCAR-3; > 100 µM (inactive) with SF-539; 94.2 µM (inactive) in the assay with SK-MEL-2; 56.5 µM (inactive) in the assay with SK-MEL-5; > 100 µM (inactive) in the assay on SK-OV-3. For the same compound, the GI50 in the assay on SR was 68.2 µM (inactive); in the assay with TK-10, > 100 µM (inactive); in the assay on U-251, > 100 µM (inactive); with UACC-62, > 100 µM (inactive).
Consider `CC(=O)Nc1ccc(C(=O)NN2C(=O)C(Cl)C2c2cc(Br)ccc2O)cc1` (stereo not drawn), for which the GI50 with A549 was 5.46 µM (inactive); with DLD-1, 4.74 µM (inactive); in the assay with HCC 2998, 11.2 µM (inactive); in the assay on KM12, 3.44 µM (inactive); in the assay on MCF7, 3.84 µM (inactive); in the assay on MDA-N, 9.16 µM (inactive). The GI50 with Malme-3M was 5.55 µM (inactive); with NCI-H226 it was 7.36 µM (inactive); in the assay with NCI-H23, 5.75 µM (inactive); in the assay on OVCAR-3, 4.11 µM (inactive); with SF-539, 4.19 µM (inactive); in the assay on SK-MEL-2, 4.86 µM (inactive). The GI50 was 5.04 µM (inactive) in the assay with SK-MEL-5; 4.42 µM (inactive) in the assay with SK-OV-3; 3.45 µM (inactive) with SR; 4.16 µM (inactive) in the assay on T47D; 36.1 µM (inactive) with TK-10; 2.59 µM (inactive) in the assay with U-251. For the same compound, the GI50 in the assay on UACC-62 is 3.85 µM (inactive).
Take `COC(=O)CCC(NC(=S)N/N=C/c1ccco1)C(=O)OC` (stereo not drawn): the GI50 in the assay on A549, in the assay on DLD-1, in the assay with HCC 2998, in the assay on KM12, in the assay with Malme-3M and with NCI-H226 was > 100 µM (inactive) each time. The GI50 with NCI-H23, with OVCAR-3, with SF-539, in the assay with SK-MEL-2, with SK-MEL-5 and in the assay on SK-OV-3 was > 100 µM (inactive) in each case. Moreover, the GI50 in the assay on SR, in the assay on TK-10, in the assay with U-251 and with UACC-62 was > 100 µM (inactive) each time.
Regarding `CC1=C(c2cc(C(=O)Nc3cccc(C(F)(F)F)c3)nc(NC#N)n2)Sc2ccccc2N1`, the GI50 in the assay with A549, in the assay with CAKI-1, in the assay on DLD-1, in the assay on HCC 2998, with KM12 and in the assay on Malme-3M was > 100 µM (inactive) each time. Further, the GI50 with NCI-H226, in the assay on NCI-H23, in the assay with OVCAR-3, in the assay on SF-539, in the assay with SK-MEL-2 and in the assay on SK-MEL-5 was > 100 µM (inactive) in each case. In addition, the GI50 in the assay with SK-OV-3 was > 100 µM (inactive); in the assay with SR it was > 100 µM (inactive); in the assay with TK-10, > 100 µM (inactive); in the assay on U-251, 86.5 µM (inactive); with UACC-62, > 100 µM (inactive).
`COc1ccc2c(c1)NC1(O)c3ccccc3C(=O)C21O` (stereo not drawn): the GI50 in the assay on A549, with CAKI-1, in the assay on DLD-1, in the assay on KM12, in the assay on Malme-3M and in the assay on NCI-H226 was > 100 µM (inactive) in each case. Moreover, the GI50 with NCI-H23, in the assay on OVCAR-3, with SF-539, with SK-MEL-5, in the assay on SK-OV-3 and in the assay on SR was > 100 µM (inactive) each time. Moreover, the GI50 with TK-10, with U-251 and in the assay with UACC-62 was > 100 µM (inactive) throughout.
`COC(=O)C1=C(c2ccc(Cl)cc2)C(O)NC(NN)=N1` (stereo not drawn): the GI50 in the assay on A549, in the assay on CAKI-1, with DLD-1, in the assay on HCC 2998, in the assay with KM12 and in the assay with Malme-3M was > 100 µM (inactive) in each case. Besides, the GI50 in the assay with NCI-H226, in the assay with NCI-H23, in the assay on OVCAR-3, in the assay on SF-539, in the assay with SK-MEL-2 and with SK-MEL-5 was > 100 µM (inactive) in each case. Also, the GI50 with SK-OV-3, in the assay with SR, in the assay with TK-10, in the assay with U-251 and with UACC-62 was > 100 µM (inactive) each time.
`CC(=O)OCC(=O)[C@@]1(O)CC[C@H]2[C@@H]3CCC4=CC(=O)[C@H](C)C[C@]4(C)[C@H]3[C@@H](O)C[C@@]21C`: the GI50 with A549, in the assay with CAKI-1, in the assay on DLD-1, in the assay on HCC 2998, in the assay on KM12 and in the assay on Malme-3M was > 100 µM (inactive) in each case. Also, the GI50 in the assay on NCI-H226, with NCI-H23, with OVCAR-3, in the assay with SF-539, with SK-MEL-2 and with SK-MEL-5 was > 100 µM (inactive) throughout. In addition, the GI50 in the assay with SK-OV-3, in the assay on SR, in the assay on TK-10, with U-251 and in the assay on UACC-62 was > 100 µM (inactive) in each case.
